Values quoted from earlier work as cited in patent US20050232985A1, “Ciprofloxacin hcl” (priority 2002, published 2005).
Structures can show the parent of a compound that is named as a salt.

Experiments:
[1] = test system: Excherichia Coli, Klebsiella SPP., and other Enterobacter SPP., Bacillus—negative
[2] = test system: Pseudomonas aerugenosa, golden yellow Staphylococcus and Streptococcus pneumoniae
[3] = test system: Streptococcus SPP.

For `O=C(O)c1cn(C2CC2)c2cc(N3CCNCC3)c(F)cc2c1=O` [Ciprofloxacin Hydrochloride, I-cyclopropyl-6-fluoro-1,4-dihydro-4-oxo-7-(I-piperazinyl)-3-quinolinecarboxylic acid], the antibacterial activity [1] is given as “wide range antibacterial activity”, the “antibacterial action versus Norfloxacin and Peifloxacin” value [2] is given as “better than other known derivatives” and the “antibacterial action versus Penicillin kinds of antibiotic” value [3] is given as “less than Penicillin kinds of antibiotic”.
